Where a chain is given by its changes, count along the chain named. pKd: −log10 of the molar value.
What was measured:
R235A-GCH1 = biological target: T1, R235A-GCH1 (Homo sapiens, UniProt P30793, R235A); test: enzyme kinetics, H2NTP formation at 330 nm, R235A-GCH1; type: biochemical; settings: in the absence and presence of GFRP; 0.1 mM BH4
T1 construct: The hGCH1 (42-250, N-terminal 6xHis Tag and TEV cleavage site); 6xHis (N); TEV cleavage site (N); made in house; host or cells: E. coli BL21(DE3)
T1 sequence (P30793 42-250 R235A): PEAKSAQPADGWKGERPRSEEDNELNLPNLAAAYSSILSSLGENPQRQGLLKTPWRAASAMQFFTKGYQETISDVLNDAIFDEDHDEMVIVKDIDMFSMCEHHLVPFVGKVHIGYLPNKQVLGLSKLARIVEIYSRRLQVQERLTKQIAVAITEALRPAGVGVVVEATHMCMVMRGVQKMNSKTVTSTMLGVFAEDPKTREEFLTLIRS
Description: (§1) In order to test the role of the key residues H126, D127, E128, R235, and R241 involved in allosteric inhibitor binding and conformational change, various point mutants were prepared and tested for their ability to be stimulated and inhibited by effector molecules in the presence or absence of GFRP. […] Enzyme activity was evaluated using an activity assay measuring the formation of the product H2NTP at 330 nm with increasing GTP concentrations.
(§2) GTPCH-I specific enzyme activity was determined by spectrometric measuring of the concentration of its direct product H2NTP. Synergy H1 (BioTek Instruments) and Gen5 2.01 software were used to evaluate H2NTP concentration and the maximal turnover rate (Vmax) within each measuring interval. H2NTP concentration was measured at 330 nm over a measuring period of 2 h using a measuring interval of 2 min to 4 min at 37 °C. Samples were prepared using 2 μM GTPCH-I, varying concentrations of GTP (1 μM to 2,000 µM) and in the absence or presence of 15 mM phenylalanine, 0.1 mM BH4, or 3 μM GFRP. The assay buffer used was 50 mM Tris/HCl, pH 7.5, 100 mM KCl. The specific enzyme activity (A) was calculated using the path length of 0.15 cm and the extinction coefficient […] = 6,300 M^−1⋅cm^−1 H2NTP. […] All enzymatic data were, at least, measured in triplicate (n = 3).

GCH1 [1] = biological target: T2, GCH1 (Homo sapiens, UniProt P30793); test: functional assay with 1H-NMR detection of formate; type: biochemical
T2 construct: The hGCH1 (42-250, N-terminal 6xHis Tag and TEV cleavage site); 6xHis (N); TEV cleavage site (N); made in house; host or cells: E. coli BL21(DE3)
T2 sequence (P30793 42-250): T1 sequence (P30793 42-250 R235A) with A194R
Description: For the functional assay, each NMR sample was prepared with 10 μM GCH1 and 170 μM or 600 μM test compound. The PBS NMR buffer additionally contained 300 μM GTP (Cayman Chemical cat. no. 16060). After a reaction time of 45 min (25 °C), a certain amount of substrate molecules (GTP) has been converted by GCH1 into 7,8-Dihydroneopterin (H2NPT) and the by-product formate (deprotonated formic acid). For product detection, a WATERGATE 1H-NMR spectrum was recorded (128 scans). We used the integrated NMR signal of the formate α-proton at 8.33 ppm as a relative enzyme activity readout. The formate integral of a negative control sample (dimethyl sulfoxide) has been set to 100%. An inhibitory active test compound decreases the GTP turnover and leads to a reduced relative formate signal integral (% inhibition). DAHP was used as a positive control.
(§3) Supplemental Figure 6: Detection of product formation and STD NMR assay. A) Enzyme activity assay for GCH1 based on colorimetric detection of H2NTP or 1H-NMR detection of formate. […]
(§4) inhibitor (e.g. BH4). B) STD NMR is capable to detect GTP binding (green). Addition of another active site binder (8-oxo […]
STD NMR enhancement of substrate GTP in the presence of allosteric regulator BH4 (red). This screening assay allows for the identification of allosteric binders. […]

GCH1 WT = biological target: T3, GCH1 WT (Homo sapiens, UniProt P30793); test: enzyme kinetics, H2NTP formation at 330 nm, WT GCH1; type: biochemical; settings: colorimetric detection of H2NTP
T3 construct: The hGCH1 (42-250, N-terminal 6xHis Tag and TEV cleavage site); 6xHis (N); TEV cleavage site (N); made in house; host or cells: E. coli BL21(DE3)
T3 sequence (P30793 42-250): T1 sequence (P30793 42-250 R235A) with A194R
Description: as §1, §2

R241A-GCH1 = biological target: T4, R241A-GCH1 (Homo sapiens, UniProt P30793, R241A); test: enzyme kinetics, H2NTP formation at 330 nm, R241A-GCH1; type: biochemical; settings: in the absence and presence of GFRP; 0.1 mM BH4
T4 construct: The hGCH1 (42-250, N-terminal 6xHis Tag and TEV cleavage site); 6xHis (N); TEV cleavage site (N); made in house; host or cells: E. coli BL21(DE3)
T4 sequence (P30793 42-250 R241A): T1 sequence (P30793 42-250 R235A) with A194R, R200A
Description: as §1, §2

GCH1 [2] = biological target: T2, GCH1; test: STD NMR assay with active site reporter ligand GTP; type: binding; settings: in the presence of allosteric regulator
From the text: as §3, §4
STD NMR enhancement of substrate GTP in the presence of allosteric regulator BH4 (red). This screening assay allows for the identification of allosteric binders. C) Correlation of activity in functional NMR assay and STD NMR enhancement of active site reporter ligand GTP.
(1 picture or pasted object on this page, not shown here)

GCH1 [3] = biological target: T2, GCH1; test: STD-NMR titration of 7-deaza-GTP to GCH1 (initial slopes of build-up curves); type: binding
From the text: To shed more light onto the mechanism of BH4-induced inhibition of GCH1, we used saturation transfer difference (STD) NMR spectroscopy to study binding of the substrate analog 7-deaza-GTP to GCH1. STD-NMR can be used to determine the KD of ligands (feasible in the range between 10^−2 and 10^−6 M) and allows the making of qualitative statements about the change of ligand binding kinetics ([28]–[31]). STD-NMR experiments were based on a titration of 7-deaza-GTP to GCH1 in the presence or absence of BH4. We measured a series of STD build-up curves (i.e., STD effects at a constant ligand concentration but increasing saturation times) at each 7-deaza-GTP concentration for the protons H7 and H1′ of the substrate analog. From the concentration dependence of the initial build-up slopes, the dissociation constant as well as the maximum STD amplification for the monitored proton signal can be derived (Fig. 6 A and B).
Fig. 6. KD determination using initial slopes from STD-NMR build-up curves. (A) For each ligand concentration, a set of measurements was recorded applying different saturation times (tsat). To obtain STD-AFmax values and the saturation rate constants ksat from STD-NMR build-up curves, experimental STD-AF values were fit to a rising exponential: STD-AF = STD-AFmax (1−exp (−ksat tsat)). From the fitting parameters, initial build-up slopes (tsat = 0) were calculated: STD-AF0 = STD-AFmax ksat. These STD-AF0 values were plotted against the ligand concentration, yielding a binding isotherm from which KD can be derived by fitting the Langmuir binding model: STD-AF0 = Amax/(1+(KD/c)). Amax is a scaling factor representing the maximum STD amplification. Two different 7-deaza-GTP protons (H1′ and H7) were monitored in these experiments. (C) Assignment of relevant protons on structural formula of 7-deaza-GTP. TEXT PRINTED IN THE PICTURE: (B) H1': KD: 52 (5mM BH4); Amax: 732 (5mM BH4); KD: 326 (no BH4); Amax: 177 (no BH4) | (B) H7: KD: 157 (5mM BH4); Amax: 729 (5mM BH4); KD: 977 (no BH4); Amax: 400 (no BH4) DOUBTS OF THE COPYIST ABOUT THIS PICTURE: Panel B: the row labels H1' and H7 are monitored protons of one ligand (printed in panel A as 7da-GTP / 7-Deaza-GTP), not separate compounds; they are used as labels as printed / Panel B: no unit is printed for KD or Amax in the table
All NMR experiments were performed at 25 °C on a Bruker HD 600-MHz spectrometer equipped with a cryogenic QCI probe head. Deuterium oxide (D2O) NMR buffer solution containing 40 mM of a NaH2PO4 and Na2HPO4 mixture with 150 mM sodium chloride (NaCl) was adjusted to a pD of 7.4 (corrected). Suppression of broad protein resonances was achieved by a T1ρ filter ([60]), formed by a 50-ms spin lock pulse. STD-NMR spectra were acquired with WATERGATE water suppression using W5 hard pulse trains ([61]). Difference spectrum ligand signal intensities were divided by corresponding off-resonance spectrum signal intensities, resulting in relative STD intensity values. Multiplication by ligand excess factor yielded STD amplification factor (STD-AF) values ([28]). For selective protein signal saturation, a cascade of Gaussian-shaped pulses was applied. Series of measurements with different total saturation times (tsat) covering a range between 1.2 and 7.2 s were recorded for extraction of initial slopes from STD-AF build-up plots. An additional relaxation delay varying from 2.8 s to 0.4 s was inserted before the saturation cascade to keep constant the total time per scan. On-resonance irradiation was set to 0.16 parts per million (ppm), and off-resonance irradiation was set to 66 ppm. Depending on the ligand concentration, 64 to 1,024 scans were acquired for the STD experiments (32 to 512 scans each for on- and off-resonance). Considering the STD-AF to be directly proportional to the fraction of bound receptor gives rise to a hyperbolic dose–response curve (specific one-site binding model) when STD-AF values are measured with different ligand concentrations ([31]). […]

GCH1 F122A mutant = biological target: T5, GCH1 F122A mutant (Homo sapiens, UniProt P30793, F122A); test: protein-detected NMR titration (1H,13C HMQC), F122A mutant; type: binding
T5 construct: The hGCH1 (42-250, N-terminal 6xHis Tag and TEV cleavage site); 6xHis (N); TEV cleavage site (N); made in house; host or cells: E. coli BL21(DE3)
T5 sequence (P30793 42-250 F122A): T1 sequence (P30793 42-250 R235A) with F81A, A194R
Description: (§5) Finally, the F122A mutant was generated and characterized to check whether the structurally observed, F122-dependent closure of the active site plays a key role in GCH1 function. […] The fitted dissociation constant KD of GCH1 for the nonhydrolyzable GTP analog 7-deaza-GTP was determined by protein-detected NMR titrations. […] Therefore, the missing enzyme activity of the F122 mutant cannot be explained by reduced affinity to the substrate and must have other underlying causes.
(§6) Perdeuterated protein with selectively labeled protonated and ^13C-labeled alanine, isoleucine, leucine, and valine methyl groups {Ala^β-[^13CH3]; Ile^δ1-[^13CH3]; Leu^δ,Val^γ-[^12CD3/^13CH3]} was expressed as described in the literature ([64]). […] All spectra were recorded on a Bruker Avance III 800 MHz NMR spectrometer equipped with a cryogenic triple-resonance probe at 298 K. Fifty micromolars perdeuterated GCH1 monomer with selectively labeled methyl groups was dissolved in 1× PBS in D2O. The ^1H,^13C-HMQC spectra of the protein were recorded with increasing concentration of the nonhydrolyzable GTP analog 7-deaza-GTP up to a final concentration of 3.5 mM. Spectra were processed with Bruker Topspin 3.5 and analyzed using CcpNmr ([65]) analysis version 2. Chemical shift perturbation (CSP) was calculated using Eq. 1 and the binding curve was fitted using Eq. 2. […]

GCH1 [4] = biological target: T2, GCH1; test: protein-detected NMR titration (1H,13C HMQC), wild-type GCH1; type: binding
Description: as §5, §6

inhibition of enzyme activity by BH4 (R235A-GCH1) | formate production in presence of inhibitor (GCH1 [1]) | H2NTP production in presence of inhibitor (GCH1 WT) | inhibition of enzyme activity by BH4 (R241A-GCH1) | effect on STD NMR signal of substrate GTP (allosteric regulator) (GCH1 [2]) | SMILES | increase of maximum STD amplification (Amax), factor (GCH1 [3]; BH4-inhibited GCH1 compared to the uninhibited enzyme) | factor of tighter binding to the allosterically inhibited GCH1 (GCH1 [3]; BH4-inhibited vs uninhibited GCH1) | pKd (GCH1 [3]; KD (STD-NMR, initial slopes), proton H1', 5mM BH4) | pKd (GCH1 [3]; KD (STD-NMR, initial slopes), proton H1', no BH4) | pKd (GCH1 [3]; KD (STD-NMR, initial slopes), proton H7, 5mM BH4) | pKd (GCH1 [3]; KD (STD-NMR, initial slopes), proton H7, no BH4) | pKd (GCH1 [3]; KD, BH4-bound inhibited hGCH1) | pKd (GCH1 [3]; KD, free, active hGCH1) | pKd (GCH1 F122A mutant) | pKd (GCH1 [4])
cannot be inhibited | No H2NTP or formate is produced | No H2NTP or formate is produced | cannot be inhibited | enhancement | C[C@H](O)[C@H](O)[C@H]1CNc2nc(N)[nH]c(=O)c2N1 [BH4, tetrahydrobiopterin] |  |  |  |  |  |  |  |  |  | 
 |  |  |  |  | Nc1nc2c(ccn2C2OC(COP(=O)(O)OP(=O)(O)OP(=O)(O)O)C(O)C2O)c(=O)[nH]1 (stereo not drawn) [7-deaza-GTP] | about 3 | ~6 | 4.28 | 3.49 | 3.80 | 3.01 | ~4.00 | ~3.22 | 3.17 | 3.10
